# Assay results from US20130252950A1, “TARGETING MTOR SUBSTRATES IN TREATING PROLIFERATIVE DISEASES” (President and Fellows of Harvard College, priority 2010, published 2013).
# Assays:
# [1] = test system: Grb10 mRNA in TSC2−/− cells; assay: Quantitative RT-PCR of Grb10 mRNA; format: cell-based, mouse; conditions: three biological replicates
# Description: FIG. 3. mTOR-mediated Grb10 phosphorylation is important for Grb10 stability. (A) Grb10 interacts with raptor, but not rictor. HA-tagged Grb10 was co-transfected with Myc-raptor or Myc-rictor in HEK293T cells. Cells were lysed in lysis buffer A, and the lysates were subjected to immunoprecipitation using anti-HA antibody conjugated beads. Raptor and rictor were probed with an antibody against the Myc-tag. (B) Grb10 is phosphorylated by mTOR in vitro. […] Phosphorylation of Grb10 at S501/S503 was detected by using the phospho-specific antibody against these two sites. (C) Long-term rapamycin treatment leads to Grb10 degradation in TSC2−/− cells. […] Grb10 is highly overexpressed in TSC2−/− cells. mRNA level was determined using quantitative RT-PCR based on three biological replicate experiments. […] Endogenous Grb10 was detected using an antibody that preferentially recognizes mouse Grb10 whereas the Grb10 DD mutant (of human origin) was detected using an anti-HA antibody. […]
# Total cellular RNA was purified from cultured cells using the RNeasy mini kit (Qiagen) following the manufacturer's protocol. For quantitative real-time PCR (qRT-PCR), RNA was reverse-transcribed using the High-Capacity cDNA Reverse Transcription Kit (Applied Biosystems) according to the manufacturer's instructions. The resulting cDNA was analyzed by qRT-PCR using the QuantiTect SYBR Green qPCR System (Qiagen). […]
# [2] = test system: Grb10 protein in TSC2−/− cells; assay: Immunoblot of Grb10 protein level after long-term treatment; format: cell-based, mouse; conditions: TSC2−/− MEFs stably expressing HA-tagged Grb10-DD, long-term 20 nM rapamycin
# Description: FIG. 3. mTOR-mediated Grb10 phosphorylation is important for Grb10 stability. (A) Grb10 interacts with raptor, but not rictor. HA-tagged Grb10 was co-transfected with Myc-raptor or Myc-rictor in HEK293T cells. Cells were lysed in lysis buffer A, and the lysates were subjected to immunoprecipitation using anti-HA antibody conjugated beads. Raptor and rictor were probed with an antibody against the Myc-tag. (B) Grb10 is phosphorylated by mTOR in vitro. […] Phosphorylation of Grb10 at S501/S503 was detected by using the phospho-specific antibody against these two sites. (C) Long-term rapamycin treatment leads to Grb10 degradation in TSC2−/− cells. Note that Grb10 protein expression levels inversely correlated with Akt activity. Grb10 is highly overexpressed in TSC2−/− cells. mRNA level was determined using quantitative RT-PCR based on three biological replicate experiments. (D) Knockdown of raptor in TSC2−/− cells decreased Grb10 protein level. Cells were starved overnight and the lysates were probed with the antibodies indicated. (E) Grb10 is highly overexpressed in TSC2−/− cells. (F) S501A/S503A mutant is unstable compared with the wild-type or the S501D/S503D mutant. The same amount of DNA was transfected into HEK293T cells. […] Endogenous Grb10 was detected using an antibody that preferentially recognizes mouse Grb10 whereas the Grb10 DD mutant (of human origin) was detected using an anti-HA antibody.
# FIG. 9. Phosphorylation of Grb10 at S501/S503 regulates its stability. […] Preincubation of the antibody with the […] completely eliminated the immunoreactivity. (B) Further validation of the phospho-specific antibody raised against the Grb10 S501/S503 sites. Grb10 WT, S501A/S503A (AA) and S501D/S503D (DD) were transfected into HEK239T cells and were probed with the antibody. Note that this antibody detected wild type (WT) Grb10, but neither of the mutant proteins. (C) Treatment of TSC2−/− cells with various mTOR kinase inhibitors led to Grb10 degradation. […] (E) Grb10 is highly overexpressed in TSC1−/− cells compared with their wild-type counterparts. (F) rapamycin treatment of TSC2−/− cells stably expressing wild type (WT) Grb10 led to lower levels of both endogenous and exogenous Grb10.
# In addition, long-term treatment with mTOR kinase inhibitors, including LY-294002, NVP-BEZ235, torin and pp 242 all led to reduced Grb10 protein expression (FIG. 9C). Similar results were obtained in TSC1−/− MEFs (FIG. 9D). In contrast, we found Grb10 was highly overexpressed in TSC2−/− and TSC1−/− MEFs compared with their wild-type counterparts (FIGS. 3E and 9E), correlating with elevated mTORC1 activity in these cells. […]
structure (smiles),measurement,setting,value
CO[C@H]1C[C@@H]2CC[C@@H](C)[C@@](O)(O2)C(=O)C(=O)N2CCCC[C@H]2C(=O)O[C@H]([C@H](C)C[C@@H]2CC[C@@H](O)[C@H](OC)C2)CC(=O)[C@H](C)/C=C(\C)[C@@H](O)[C@@H](OC)C(=O)[C@H](C)C[C@H](C)/C=C/C=C/C=C/1C [rapamycin],decrease in Grb10 mRNA levels after long-term rapamycin,[1],approximately 2 fold
same,Grb10 S501D/S503D (DD) mutant protein levels,[2],no effect
